Assay [1] relates to A431 cells [human epidermoid carcinoma, overexpressing HER1 (EGFR, ErbB1)]. Briefly: In vitro tumor cell proliferation assay (Cell Titer-Glo luminescent cell viability), A431 cells. It counts as cell-based. To be noted: A-431, 72 h, 72 hours of drug exposure, Cell Titer-Glo readout, read-out: IC50, anti-proliferative activity in A431 cells. An excerpt: (§1) The utility of the compounds of the present invention can be illustrated, for example, by their activity in vitro in the in vitro tumor cell proliferation assay described below. The link between activity in tumor cell proliferation assays in vitro and anti-tumor activity in the clinical setting has been very well established in the art.
(§2) The following assay is one of the methods by which compound activity relating to treatment of the disorders identified herein can be determined.
(§3) The tumor cell proliferation assay used to test the compounds of the present invention involves a readout called Cell Titer-Glow® Luminescent Cell Viability Assay developed by Promega® (Cunningham, B A “A Growing Issue: Cell Proliferation Assays, Modern kits ease quantification of cell growth” The Scientist 2001, 15(13), 26, and Crouch, S P et al., “The use of ATP bioluminescence as a measure of cell proliferation and cytotoxicity” Journal of Immunological Methods 1993, 160, 81-88), that measures inhibition of cell proliferation. Generation of a luminescent signal corresponds to the amount of ATP present, which is directly proportional to the number of metabolically active (proliferating) cells.
(§4) A431 cells [human epidermoid carcinoma, ATCC # […], overexpressing HER1 (EGFR, ErbB1)] and BT474 [human breast carcinoma, ATCC # CRL-1555, overexpressing HER2 (ErbB2)] were plated at a density of 2.5×10^3 cells/well in 96 well black-clear bottom tissue culture plates in RPMI media with 10% Fetal Bovine Serum and incubated at 37° C. Twenty-four hours later, test compounds are added at a final concentration range from as high 100 μm to as low 64 pM depend on the activities of the tested compounds in serial dilutions at a final DMSO concentration of 0.1%. Cells were incubated for 72 hours at 37° C. in complete growth media after addition of the test compound. After 72 hours of drug exposure, the plates were equilibrated to room temperature for approximately 30 min. Then, using a Promega Cell Titer Glo Luminescent® assay kit, lysis buffer containing 100 microliters of the enzyme luciferase and its substrate, luciferin mixture, was added to each well. The plates were mixed for 2 min on orbital shaker to ensure cell lysis and incubated for 10 min at room temperature to stabilize luminescence signal. The samples were read on VICTOR 2 using Luminescence protocol, and analyzed with Analyze5 software to generate IC50 values.
On the technique in general: ATP-based viability assays read luminescence as a measure of living cells.

The subject of assay [2] is BT474 [human breast carcinoma, overexpressing HER2 (ErbB2)]. Briefly: In vitro tumor cell proliferation assay (Cell Titer-Glo luminescent cell viability), BT474 cells. It counts as cell-based. To be noted: BT-474, 72 h, 72 hours of drug exposure, Cell Titer-Glo readout, read-out: IC50, anti-proliferative activity in BT474 cells.
Excerpt: as §1, §2, §3, §4

In general, IC50 refers to the concentration needed to halve the response being measured.

Counter-ions that a name gives are not always drawn.

As for `COC1CCN(CCc2ccc3c(c2)sc2ncnc(Nc4ccc(OCc5cccc(F)c5)c(Cl)c4)c23)C1` (centres unmarked) [Example 20, N-{3-chloro-4-[(3-fluorobenzyl)oxy]phenyl}-7-[2-(3-methoxypyrrolidin-1-yl)ethyl][1] benzothieno[2,3-d]pyrimidin-4-amine], the IC50 in assay [1] is at most 5 µM; in assay [2] it was at most 0.5 µM.
With `CN1CCN(C(=O)Cc2ccc3c(c2)sc2ncnc(Nc4ccc(OCc5ccccn5)c(Cl)c4)c23)CC1` [Example 96, N-[3-chloro-4-(pyridin-2-ylmethoxy)phenyl]-7-[2-(4-methylpiperazin-1-yl)-2-oxoethyl][1]benzothieno[2,3-d] pyrimidin-4-amine], the figures for the IC50 in assay [1] and in assay [2] were at most 50 µM and at most 0.5 µM, respectively.
For `Clc1cc(Nc2ncnc3sc4cc(CCN5CCNCC5)ccc4c23)ccc1OCc1ccccn1` [Example 89, N-[3-chloro-4-(pyridin-2-ylmethoxy)phenyl]-7-(2-piperazin-1-ylethyl)[1]benzothieno[2,3-d] pyrimidin-4-amine trifluoroacetate], the results for the 50% inhibitory concentration (IC50) in assay [1] and in assay [2] were at most 50 µM and at most 0.5 µM, respectively.
Take `CS(=O)(=O)CCNC(=O)CCc1ccc2c(c1)sc1ncnc(Nc3ccc(OCc4cccc(F)c4)c(Cl)c3)c12` [Example 69, 3-[4-({3-chloro-4-[(3-fluorobenzyl)oxy]phenyl}amino)[1]benzothieno[2,3-d]pyrimidin-7-yl]-N-[2-(methylsulfonyl)ethyl] propanamide]: the IC50 in assay [1] is at most 5 µM; in assay [2] it was at most 0.5 µM.
Take `OCCNCCc1ccc2c(c1)sc1ncnc(Nc3ccc(OCc4cccc(F)c4)c(Cl)c3)c12` [Example 22, 2-({2-[4-({3-chloro-4-[(3-fluorobenzyl)oxy]phenyl}amino) [1]benzothieno [2,3-d]pyrimidin-7-yl]ethyl}amino)ethanol]: the IC50 was at most 5 µM in assay [1] and at most 0.5 µM in assay [2].
In the case of `CCNCCc1ccc2c(c1)sc1ncnc(Nc3ccc(OCc4ccccn4)c(Cl)c3)c12` [Example 90, N-[3-chloro-4-(pyridin-2-ylmethoxy)phenyl]-7-[2-(ethylamino)ethyl][1]benzothieno [2,3-d]pyrimidin-4-amine trifluoroacetate], the results for the IC50 in assay [1] and in assay [2] were at most 5 µM and at most 0.5 µM, respectively.
The like results for `COC[C@H]1CCCN1CCc1ccc2c(c1)sc1ncnc(Nc3ccc(OCc4cccc(F)c4)c(Cl)c3)c12` [Example 5, N-{3-chloro-4-[(3-fluorobenzyl)oxy]phenyl}-7-{2-[2-(methoxymethyl)pyrrolidin-1-yl]ethyl}[1]benzothieno[2,3-d] pyrimidin-4-amine] were, in that order, at most 5 µM and at most 0.5 µM.
Consider `O=C(Cc1ccc2c(c1)sc1ncnc(Nc3ccc(OCc4cccc(F)c4)c(Cl)c3)c12)NCCN1CCOCC1` [Example 30, 2-[4-({3-chloro-4-[(3-fluorobenzyl)oxy]phenyl}amino)[1]benzothieno[2,3-d]pyrimidin-7-yl]-N-(2-morpholin-4-ylethyl)acetamide], for which the IC50 in assay [1] was at most 5 µM; in assay [2], at most 0.5 µM.
Consider `O=C(O)Cc1ccc2c(c1)sc1ncnc(Nc3ccc(OCc4cscn4)c(Cl)c3)c12` [Example 135, (4-{[3-chloro-4-(1,3-thiazol-4-ylmethoxy)phenyl]amino}[1]benzothieno[2,3-d]pyrimidin-7-yl) acetic acid], for which the IC50 was at most 50 µM in assay [1] and at most 5 µM in assay [2].
With `O=C(Cc1ccc2c(c1)sc1ncnc(Nc3ccc(OCc4ccccn4)c(Cl)c3)c12)N1CCCC1` [Example 99, N-[3-chloro-4-(pyridin-2-ylmethoxy)phenyl]-7-(2-oxo-2-pyrrolidin-1-ylethyl)[1]benzothieno [2,3-d]pyrimidin-4-amine], the figures for the IC50 in assay [1] and in assay [2] were at most 50 µM and at most 5 µM, respectively.
With `COCCNC(=O)/C=C/c1ccc2c(c1)sc1ncnc(Nc3ccc(OCc4cccc(F)c4)c(Cl)c3)c12` [Example 50, (2E)-3-[4-({3-chloro-4-[(3-fluorobenzyl)oxy]phenyl}amino) [1]benzothieno[2,3-d]pyrimidin-7-yl]-N-(2-methoxyethyl)acrylamide], the IC50 in assay [1] was at most 50 µM; in assay [2], at most 0.5 µM.
Turning to `C=Cc1ccc2c(c1)sc1ncnc(Nc3ccc(OCc4cccc(F)c4)c(Cl)c3)c12` [Example 14, N-{3-chloro-4-[(3-fluorobenzyl)oxy]phenyl}-7-vinyl[1]benzothieno[2,3-d]pyrimidin-4-amine], the IC50 in assay [1] is at most 50 µM; in assay [2] it was at most 0.5 µM.
For `CCN1CCN(C(=O)[C@@H](O)[C@H](O)c2ccc3c(c2)sc2ncnc(Nc4ccc(OCc5cccc(F)c5)c(Cl)c4)c23)CC1` [Example 58, (1R,2S)-1-[4-({3-chloro-4-[(3-fluorobenzyl)oxy]phenyl}amino)[1]benzothieno[2,3-d]pyrimidin-7-yl]-3-(4-ethylpiperazin-1-yl)-3-oxopropane-1,2-diol], in that order: at most 50 µM and at most 5 µM.
In the case of `OCC(O)c1ccc2c(c1)sc1ncnc(Nc3ccc(OCc4cccc(F)c4)c(Cl)c3)c12` (racemic) [Example 25, 1-[4-({3-chloro-4-[(3-fluorobenzyl)oxy]phenyl}amino) [1]benzothieno[2,3-d]pyrimidin-7-yl]ethane-1,2-diol], the IC50 in assay [1] was at most 5 µM; in assay [2] it was at most 0.5 µM.
For the compound `CN(C)CCNC(=O)Cc1ccc2c(c1)sc1ncnc(Nc3ccc4c(cnn4Cc4cccc(F)c4)c3)c12` [Example 126, N-[2-(dimethylamino)ethyl]-2-(4-{[1-(3-fluorobenzyl)-1H-indazol-5-yl]amino}[1]benzothieno[2,3-d]pyrimidin-7-yl)acetamide], the results for the IC50 in assay [1] and in assay [2] were at most 5 µM and at most 0.5 µM, respectively.
The like results for `OCC(CO)c1ccc2c(c1)sc1ncnc(Nc3ccc(OCc4cccc(F)c4)c(Cl)c3)c12` [Example 46, 2-{4-[3-Chloro-4-(3-fluoro-benzyloxy)-phenylamino]-benzo[4,5]thieno[2,3-]pyrimidin-7-yl}-propane-1,3-diol] were, in that order, at most 5 µM and at most 0.5 µM.
In the case of `O=C(Cc1ccc2c(c1)sc1ncnc(Nc3ccc4c(cnn4Cc4cccc(F)c4)c3)c12)NC1CN2CCC1CC2` (centres unmarked) [Example 123, N-1-azabicyclo[2.2.2]oct-3-yl-2-(4-{[1-(3-fluorobenzyl)-1H-indazol-5-yl]amino}[1]benzothieno [2,3-d]pyrimidin-7-yl)acetamide], the IC50 in assay [1] is at most 5 µM; in assay [2] it was at most 0.5 µM.
`OCC(O)c1ccc2c(c1)sc1ncnc(Nc3ccc4c(cnn4Cc4ccccn4)c3)c12` (centres unmarked) [Example 131, 1-(4-{[1-(pyridin-2-ylmethyl)-1H-indazol-5-yl]amino}[1]benzothieno [2,3-d]pyrimidin-7-yl)ethane-1,2-diol]: the results for the IC50 in assay [1] and in assay [2] were at most 50 µM and at most 0.5 µM, respectively.
`O=C(/C=C/c1ccc2c(c1)sc1ncnc(Nc3ccc(OCc4cccc(F)c4)c(Cl)c3)c12)N1CCOCC1` [Example 55, N-{3-chloro-4-[(3-fluorobenzyl)oxy]phenyl}-7-[(1E)-3-morpholin-4-yl-3-oxoprop-1-en-1-yl][1]benzothieno[2,3-d] pyrimidin-4-amine trifluoroacetate]: in assay [1], the IC50 is at most 5 µM.
For the compound `OC[C@@H](O)COc1ccc2c(c1)sc1ncnc(Nc3ccc(OCc4cccc(F)c4)c(Cl)c3)c12` [Example 35, (2R)-3-{[4-({3-chloro-4-[(3-fluorobenzyl)oxy]phenyl}amino)[1]benzothieno[2,3-d]pyrimidin-7-yl]oxy}propane-1,2-diol], the IC50 in assay [1] was at most 5 µM.
`OC[C@@H](O)COc1ccc2c(c1)sc1ncnc(Nc3ccc(OCc4cccc(F)c4)c(Cl)c3)c12` [Example 147, ((2R)-3-{[4-({3-chloro-4-[(3-fluorobenzyl)oxy]phenyl}amino)[1]benzothieno[2,3-d]pyrimidin-7-yl]oxy}propane-1,2-diol hydrochloride]: the IC50 in assay [2] is at most 0.5 µM.
Turning to `CS(=O)(=O)CCNC(=O)/C=C/c1ccc2c(c1)sc1ncnc(Nc3ccc(OCc4cccc(F)c4)c(Cl)c3)c12` [Example 53, (2E)-3-[4-({3-chloro-4-[(3-fluorobenzyl)oxy]phenyl}amino) [1]benzothieno[2,3-d]pyrimidin-7-yl]-N-[2-(methylsulfonyl)ethyl]acrylamide], the IC50 in assay [1] is at most 50 µM.
As to `CN1CCN(CCc2ccc3c(c2)sc2ncnc(Nc4ccc(OCc5ccccn5)c(Cl)c4)c23)CC1` [Example 91], the IC50 in assay [2] was at most 0.5 µM.

These data come from patent US7750017B2, “Heterocycles” (Bayer Schering Pharma Aktiengesellschaft, priority 2004, dated 2010).
